# Where a SMILES comes first, the peptide text is derived from it. The star is where a group is joined. Cbz = O=C(OCc1ccccc1)*; Boc = CC(C)(C)OC(=O)*
# T1: Human recombinant mini-CAPN9 (Homo sapiens, UniProt O14815)
# T1 construct: made in house; host or cells: E. coli
# T1 sequence (O14815 42-337 limits assumed): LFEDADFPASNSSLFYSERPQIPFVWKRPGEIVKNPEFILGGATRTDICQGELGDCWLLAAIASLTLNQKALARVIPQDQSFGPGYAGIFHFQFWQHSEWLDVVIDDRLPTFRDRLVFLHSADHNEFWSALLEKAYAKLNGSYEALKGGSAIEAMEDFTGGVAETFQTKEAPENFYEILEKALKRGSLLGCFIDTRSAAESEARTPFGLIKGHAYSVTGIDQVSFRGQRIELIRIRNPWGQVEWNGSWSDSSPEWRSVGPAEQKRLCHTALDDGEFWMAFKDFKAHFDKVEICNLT
# Assays:
# [1] = target: T1, Human recombinant mini-CAPN9; experiment: Biochemical assay for calpain 9 inhibition (FRET peptide substrate, FLIPR); conditions: IC50 by 4 parameter logistic fitting; 10 min preincubation; ambient temperature
# Protocol: Human recombinant mini-CAPN9 was expressed in E. coli and purified as described in Davis, T. L., et al. (2007) J Mol Biol 366(1): 216-229.
# All enzyme reactions are run at ambient temperature (˜25° C.) in black 384 well assay plates. Inhibitors solutions in DMSO are typically semi-log serially diluted prior to further dilution in assay buffer (Tris-HCl 20 mM, KCl 100 mM, BSA 0.1%, 1 mM DTT). Calpain enzyme stocks are diluted in assay buffer without Ca (II) just prior to use (1 μM) and incubated with serially diluted test compounds at 2× concentrations in the assay plate for 10 min.
# After the compound preincubation, the FLIPR liquid handler is used to initiate the reaction by adding a 2× mix of substrate (1 μM Calpain FRET peptide substrate (5-FAM/QXL 520) Anaspec (Catalog# AS-72149)) and Ca (II) (10 mM). Reactions are measured using a FLIPR Tetra reader (Molecular Devices Inc).
# Slopes (reaction rates) are calculated within the 0-2 min interval using the ScreenWorks software (Molecular Devices Inc). Slopes are plotted versus test compound concentration to obtain dose-response curves. IC50 values are obtained using 4 parameter logistic fitting.
# [2] = tested on: calpain activity (cleavage of Filamin A); experiment: TGFβ-induced calpain activity in NMuMG cells (cleavage of Filamin A, western blot); assay type: cell-based, Mouse
# Protocol: (§1) (FIG. 1B; Levels were normalized to the 72 h TGFβ1 only treated sample for each blot. Students t-test *p<0.05, **p<0.01, † p<0.005, †† p<0.001). […] (FIG. 1H; Levels were normalized to the 72 h TGFβ1 only treated sample for each blot. Students t-test *p<0.05, **p<0.01, † p<0.005, †† p<0.001).
# NMuMG cells [3] = experiment: TGFβ1-induced EpMT in NMuMG cells (αSMA western blot, qPCR, immunofluorescence); assay type: cell-based, Mouse; conditions: for TGFβ1-induced EpMT as measured by αSMA expression: western blot
# Protocol: (§2) (FIG. 1B; Levels were normalized to the 72 h TGFβ1 only treated sample for each blot. Students t-test *p<0.05, **p<0.01, † p<0.005, †† p<0.001). […] (FIG. 1H; Levels were normalized to the 72 h TGFβ1 only treated sample for each blot. Students t-test *p<0.05, **p<0.01, † p<0.005, †† p<0.001). FIG. 1G and FIG. 1H show the small molecule […] SB431542 suppressed TGFβ-induced calpain activity (as measured by cleavage of Filamin A, a known calpain substrate) and TGFβ-induced phosphorylation of SMAD2, as measured by western blot (FIG. 1H) and quantified western blot data done in biological replicates (FIG. 1H; Levels were normalized to the 72 h TGFβ1 only treated sample for each blot. Student's t-test *p<0.05, **p<0.01, † p<0.005, †† p<0.001).). […] NMuMG cells pretreated with TGFβ1 for 72 hours to induce EMT, and then treated with calpain inhibitor MDL-28170 while in the continued presence of TGFβ1 for an additional 48 h or 72 h post-induction, can revert to a more epithelial phenotype as assessed by αSMA expression by western blot (FIG. 1I) and quantified western blot data done in biological replicates (FIG. 1J; Levels were normalized to TGFβ1 only treated samples within each time point. Students t-test *p<0.05).
# Calpain inhibition was also found to suppress TGFβ-induced expression of genes commonly and functionally associated with fibrosis, such as collagen 1A1, vimentin and matrix metalloproteinase 2/9 (FIG. 1C). A profound decrease in E-cadherin, a cell surface protein highly expressed by epithelial cells, was observed by immunofluorescence upon stimulation with TGFβ but was prevented by treatment with calpain inhibitor MDL-28170 (FIG. 1D). […] (FIG. 1F). […]
# phosphorylation of SMAD2 = experiment: TGFβ-induced phosphorylation of SMAD2 in NMuMG cells (western blot); assay type: cell-based, Mouse
# Protocol: as §1
# [4] = tested on: Primary Normal Human Lung Fibroblasts (NHLF); experiment: TGFβ1-induced FMT in NHLF cells (αSMA western blot); assay type: cell-based
# Text: Resident fibroblasts have also been described to undergo transformation in the presence of high TGFβ. Using Primary Normal Human Lung Fibroblasts (NHLF), it was shown that treatment with calpain inhibitor MDL-28170 (FIG. 8A and FIG. 8B) or siRNA mediated knockdown of CAPNS2 (FIG. 8C) can inhibit TGFβ1-induced FMT as measured by αSMA.
# MDCK cells = experiment: TGFβ-induced EpMT in MDCK cells (αSMA western blot); assay type: cell-based, Canine
# NMuMG cells [5] = experiment: Reversal of pre-established TGFβ-induced myofibroblast differentiation in NMuMG cells (mesenchymal-to-epithelial transition); assay type: cell-based, Mouse; conditions: NMuMG pretreated with TGFβ 72 h, 48 h and 72 h post-induction
# Protocol: as §2
# If TGFβ-induced calpain activity is necessary to maintain myofibroblast differentiation, suppression of calpain activity after pre-establishment of myofibroblast differentiation should be sufficient for mesenchymal-to-epithelial transition and provide evidence supporting reversal of a disease state.
# PAVEC = experiment: TGFβ1-induced EnMT in PAVEC (qPCR, immunofluorescence); assay type: cell-based
# Text: (FIG. 7B; E-cadherin shown in green, vimentin shown in red, DAPI nuclear marker shown in blue. Scale bar=100 μm). […] Scale bar=100 μm);
# Myofibroblasts can derive from cell types other than those of epithelial origin, including endothelial cells and fibroblasts. […] (FIG. 7B). Overexpression of calpastatin inhibits TGFβ1-induced EnMT in PAVEC as measured from gene expression of αSMA, vimentin, E-cadherin, MMP2 and MMP9 (FIG. 7C) and inhibits morphological changes associated with EnMT, such as downregulation of E-cadherin/cell-cell adhesion and upregulation of vimentin. (FIG. 7D).
Molecule,IC50 [1],TGFβ-induced calpain activity (cleavage of Filamin A) [2],TGFβ1-induced EpMT as measured by αSMA expression (NMuMG cells [3]),TGFβ-induced phosphorylation of SMAD2 (phosphorylation of SMAD2),further results
CCC(C)[C@H](NS(=O)(=O)c1cccc2ccccc12)C(=O)N[C@H](C=O)Cc1c[nH]c2ccccc12 (stereo partly drawn) [NapSul-Ile-Trp-CHO],6.25 µM,–,–,–,–
CC(C)C[C@@H](C=O)NC(=O)[C@@H](NS(=O)(=O)c1ccc(F)cc1)C(C)C [Calpain Inhibitor IV SJA-6017],2.23 µM,–,–,–,–
O=C1Nc2ccc([N+](=O)[O-])cc2C1=O [5-Nitroisatin],42.3 µM,–,–,–,–
CC(C)C[C@@H](C=O)NC(=O)[C@H](CC(C)C)NC(=O)[C@H](CC(C)C)NC(=O)OCc1ccccc1 [MG-132] (Cbz-Leu-Leu-Leu-aldehyde),9.88 µM,–,–,–,–
CC(C)CCNC(=O)[C@H](CC(C)C)NC(=O)[C@H]1O[C@@H]1C(=O)O [E-64-C],35.8 µM,–,–,–,–
CC(C)[C@H](NC(=O)CNC(=O)OC(C)(C)C)C(=O)N[C@H](C=O)C(C)C [Boc-Gly-Val-Val-CHO] (Boc-Gly-Val-Val-aldehyde),6.68 µM,–,–,–,–
CC(=O)N[C@@H](CC(C)C)C(=O)N[C@@H](CC(C)C)C(=O)N[C@H](C=O)CCCNC(=N)N [Leupeptin Hemisulfate],9.24 µM,–,–,–,–
"NCCOB(c1ccccc1)c1ccccc1 [2-APB, 2-aminoethoxydiphenyl borate]",–,suppressed,able to inhibit TGFβ1-induced αSMA expression at high doses,without significantly affecting,–
CC(C)[C@H](NC(=O)OCc1ccccc1)C(=O)N[C@H](C=O)Cc1ccccc1 [MDL-28170] (Cbz-Val-Phe-aldehyde),1.61 µM,suppressed,antagonize TGFβ1-induced EpMT,without significantly affecting,"TGFβ1-induced FMT as measured by αSMA [4]: can inhibit; TGFβ1-induced reorganization of the actin cytoskeleton to stress fibers (NMuMG cells [3]; immunofluorescence): blocked; TGFβ-induced decrease in E-cadherin (NMuMG cells [3]; immunofluorescence): prevented; TGFβ-induced expression of genes associated with myofibroblast differentiation and/or fibrosis (Col1A1, Vimentin, MMP2, MMP9) (NMuMG cells [3]; quantitative PCR): suppresses; TGFβ-induced EpMT as measured from αSMA expression (MDCK cells): suppresses TGFβ-induced EpMT in MDCK cells; E-cadherin expression after pre-established myofibroblast differentiation (NMuMG cells [5]): reacquired expression of the epithelial marker E-cadherin; actin cytoskeleton organisation after pre-established myofibroblast differentiation (NMuMG cells [5]): reorganized their actin cytoskeleton from stress fibers to cortical actin; αSMA expression after pre-established myofibroblast differentiation (NMuMG cells [5]; continued TGFβ1): decreased expression of αSMA"
CSCC[C@@H](C=O)NC(=O)[C@H](CC(C)C)NC(=O)[C@H](CC(C)C)NC(C)=O [Calpain Inhibitor II (ALLM)] (Ac-Leu-Leu-Met-aldehyde),3.32 µM,–,–,–,–
NC(=O)c1ccc(-c2nc(-c3ccc4c(c3)OCO4)c(-c3ccccn3)[nH]2)cc1 [SB431542],–,did not show,did not show,did not show,–
CC(C)C[C@H](NC(=O)[C@H]1O[C@@H]1C(=O)O)C(=O)NCCCCNC(=N)N [E-64],11.6 µM,–,–,–,–
CC(C)C[C@@H](C=O)NC(=O)[C@H](CC(C)C)NC(=O)OCc1ccccc1 [Z-Leu-Leu-CHO],2.35 µM,–,–,–,–
"C=CC[C@@H]1/C=C(\C)C[C@H](C)C[C@H](OC)[C@H]2O[C@@](O)(C(=O)C(=O)N3CCCC[C@H]3C(=O)O[C@H](/C(C)=C/[C@@H]3CC[C@@H](O)[C@H](OC)C3)[C@H](C)[C@@H](O)CC1=O)[C@H](C)C[C@@H]2OC [FK506, tacrolimus]",–,–,able to potently suppress,–,–
CCCC[C@@H](C=O)NC(=O)[C@H](CC(C)C)NC(=O)OCc1ccccc1 [Calpeptin],2.84 µM,suppressed,suppresses,without significantly affecting,–
NS8593,–,suppressed,able to potently inhibit,without significantly affecting,TGFβ1-induced FMT as measured by αSMA [4]: able to suppress
"calpastatin: endogenous calpain inhibitor, mouse calpastatin overexpressed from a bicistronic vector with GFP (protein, UniProt P51125 1-788, looked up, co-expressed with GFP) Calpastatin: MSQPGPKPAASPRPSRGAAARHTQEHVNEKNIGSSSKPGEKKGSDEKKAASLGSSQPSRPHVGEAATATKVTASSAATSKSPSMSTTETKAIPVNKQLEGPDQKRPREQAVKTESKKPQSSEQPVVHEKKSKGGPKEGSEPKNLPKHTSSTGSKHAHKEKALSRSNEQMVSEKPSESKTKFQDVPSAGGESVAGGGTVATALDKVVGKKKEQKPFTPASPVQSTPSKPSDKSGMDAALDDLIDTLGGHEDTNRDDPPYTGPVVLDPMYSTYLEALGIKEGTIPPEYRKLLEKNEGITQPLPDSPKPMGTDQAIDALSSDFTCSSPTGKQSEKEKSTGEIFKAQSAGVTRSSVPPKEKKRKVEEEVINDQALQALSDSLGTRQPDPPSHVSQAEQVKEAKAKEERQEKCGEDEDTVPAEYRLKPAKDKDGKPLLPEPEETSKSLSESELIGELSADFDRSTYQDKPSTPAEKKSNDTSQTPPGETVPRASMCSIRSAPPKLASLKGVVPEDAVETLAGSLGTREADPEHEKTVEDKVKEKAKEEEHEKLGEKEETVPPDYRLEEVKDKDGKPLLPKESQEQLAPLSDDFLLDALSQDFSSPANISSLEFEDAKLSAAISEVVSQTPAPSTHAAAPLPGTEQKDKELDDALDELSDSLGQRPPDPDENKPLDDKVKEKIKPEHSEKLGERDDTIPPEYRHLLDNDGKDKPEKPPTKKTEKPDQDRDPIDALSEDLDSCPSTTETSKNTAKGKSKKTSSSKASKDGEKTKDSSKKTEEVSKPKAKEDARHS",–,suppressed,virtually no αSMA protein,without affecting,"morphological changes associated with EnMT (downregulation of E-cadherin/cell-cell adhesion, upregulation of vimentin) (PAVEC; immunofluorescence): inhibits; TGFβ1-induced EnMT as measured from gene expression of αSMA, vimentin, E-cadherin, MMP2 and MMP9 (PAVEC; quantitative PCR): inhibits"

# — US11219670B2, “Targeting CAPN9/CAPNS2 activity as a therapeutic strategy for the treatment of myofibroblast differentiation and associated pathologies” (The Johns Hopkins University, priority 2014, dated 2022)
